# Assay results from patent publication US6566355B1 (Hoffmann-La Roche Inc., priority 1991, dated 2003).
# pIC50: −log10 of the molar value. Counter-ions that a name gives are not always drawn. Like-named read-outs stand apart in the source and are kept apart here.
# How the values were obtained:
# Citrobacter freundii = assay: MIC in vitro of a 1:4 combination of ceftriaxone with a compound of formula I (test D); format: cell-based
# Protocol: D. Determination of the β-lactamase-inhibiting activity by combination of a compound of general formula I with ceftriaxone
# The minimum inhibitory concentration in vitro (MIC in μg/ml) of a 1:4 combination of ceftriaxone with a compound of formula I against Citrobacter freundii is measured and compiled in Table 2 hereinafter.
# β-lactamase = target: T1, β-lactamase (Citrobacter freundii, UniProt P05193); assay: biochemical
# T1 construct: Various β-lactamases can be isolated from penicillin- or cephalosporin-resistant bacterial strains such as; endogenous in cells; host or cells: Citrobacter freundii 1203 (enzyme purified from the crude cell extract, after ampicillin induction when necessary)
# T1 sequence (P05193 21-381): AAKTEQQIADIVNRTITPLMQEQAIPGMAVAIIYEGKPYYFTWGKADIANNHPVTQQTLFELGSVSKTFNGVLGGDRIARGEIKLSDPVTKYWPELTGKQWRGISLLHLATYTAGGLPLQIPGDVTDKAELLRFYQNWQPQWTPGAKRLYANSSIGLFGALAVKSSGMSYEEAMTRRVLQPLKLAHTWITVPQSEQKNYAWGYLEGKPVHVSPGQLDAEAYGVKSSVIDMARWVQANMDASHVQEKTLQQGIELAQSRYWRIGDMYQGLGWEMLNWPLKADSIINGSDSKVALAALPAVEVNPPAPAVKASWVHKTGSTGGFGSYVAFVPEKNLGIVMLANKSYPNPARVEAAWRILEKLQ
# Protocol: A. Isolation of the β-lactamases
# Various β-lactamases can be isolated from penicillin- or cephalosporin-resistant bacterial strains such as Klebsiella pneumoniae NCTC 418, Proteus vulgaris 1028, Bacillus licheniformis 749/C, Escherichia coli SN01 and Citrobacter freundii 1203. For this purpose, the corresponding strains are cultivated in Tryptic Soy Broth (Difco) and harvested by centrifugation in the last logarithmic growth phase (when necessary 50-100 mg/l of ampicillin are added to the medium towards the end of the log-phase in order to induce the β-lactamase). The thus-obtained bacterial mass is treated with 20 mM Tris-HCl buffer (pH 7.0); the cells are broken open with a French press while cooling. The mixture is centrifuged (20,000 r/min.) for 20-30 minutes and a clear crude extract is obtained.
# B. Determination of the β-lactamase activity
# The determination of the activity of the isolated β-lactamases can be carried out according to the method of O'Callaghan, C. H. et al. [Antimicr. Ag. Chemother., 1, 283-288 (1972)] using the chromogenic cephalosporin nitrocefin (87/312 from Glaxo). The requisite test batch contains per ml of water: 50 mM phosphate buffer (pH 7.0), 0.1 mM nitrocefin and sufficient enzyme (β-lactamase) to achieve a ΔA/min. of about 0.1. The cleavage of the substrate, which is accompanied by a change in colour, is effected at 37° C. and is followed quantitatively at 482 nm using a spectral photometer.
# C. Determination of the β-lactamase-inhibiting activity of the compounds of general formula I
# The above-described cleavage of the chromogenic substrate by β-lactamases (test B.) can be inhibited by the addition of compounds of general formula I (inhibitors). […] As a measurement for the affinity of the particular tested inhibitor to the β-lactamase, which is a measurement of the strength of the inhibitor, there serves that concentration which inhibits by 50% (IC 50 in nM) the cleavage of the substrate (nitrocefin) effected under the above test conditions (test B) in the absence of an inhibitor. […] The determination of the IC50 was effected by means of a graph.
# (Test organism: Citrobacter freundii)
# [1] = 1:4 combination of ceftriaxone with the compound
# [2] = isolated β-lactamase of Citrobacter freundii; substrate nitrocefin 0.1 mM; 15 minutes pre-incubation with inhibitor; 37° C., pH 7.0; read-out: IC 50 nM
# [3] = IC 50 nM, isolated β-lactamase of Citrobacter freundii; substrate nitrocefin 0.1 mM; 15 minutes pre-incubation with inhibitor; 37° C., pH 7.0
molecule,measurement,setting,value
"O=C(O)C(C(=O)N1CC[C@@H]2[C@H]1C(=O)N2S(=O)(=O)O)c1ccsc1 (mixture of isomers) [6(e), (R/S)-α-(1S,5R)-2-[2-carboxy-2-(3-thienyl)acetyl]-7-oxo-2,6-diazabicyclo[3.2.0]heptane-6-sulphonic acid triethylamine salt (1:1)]",MIC,Citrobacter freundii; [1],4 µg/mL
same,pIC50,β-lactamase,6.33
O=C(c1cc2ccccc2[nH]1)N1CC[C@@H]2[C@H]1C(=O)N2S(=O)(=O)O (racemic) [6(j)],IC50,β-lactamase; [2],280 nM
"CCN(CC)CC.Nc1nc(C(N)C(=O)N2CC[C@@H]3[C@H]2C(=O)N3S(=O)(=O)O)cs1 (mixture of isomers) [6(r), (1S,5R)-2-[DL-2-(2-Amino-4-thiazolyl)glycyl] -7-oxo-2,6-diazabicyclo[3.2.0]heptane-6-sulphonic acid triethylamine salt]",MIC,Citrobacter freundii; [1],2 µg/mL
"CC(C)(C)OC(=O)N1CC[C@@H]2[C@H]1C(=O)N2S(=O)(=O)O [1(b), sodium salt]",IC50,β-lactamase; [2],225 nM
"O=C(NCC(=O)N1CC[C@@H]2[C@H]1C(=O)N2S(=O)(=O)O)OCc1ccccc1 [4(g), Benzyl[[[(1S,5R)-7-oxo-6-sulpho-2,6-diazabicyclo[3.2.0]-hept-2-yl]carbonyl]methyl]carbamate]",pIC50,β-lactamase,6.41
"CC(=O)N/C(=C\c1ccccc1)C(=O)N1CC[C@@H]2[C@H]1C(=O)N2S(=O)(=O)[O-].[Na+] [5(f), (1S,5R)-2-[(Z)-3-α-Acetamidocinnamoyl]-7-oxo-2,6-diazabicyclo[3.2.0]heptane-6-sulphonic acid sodium salt]",MIC,Citrobacter freundii; [1],16 µg/mL
"CSCC[C@@H](NC(=O)c1ccccc1)C(=O)N1CC[C@@H]2[C@H]1C(=O)N2S(=O)(=O)O.[Na] [5(h), (1S,5R)-2-[(R,S)-2-Benzamido-4-(methylthio)butyryl]-7-oxo-2,6-diazabicyclo[3.2.0]heptane-6-sulphonic acid sodium salt]",MIC,Citrobacter freundii; [1],4 µg/mL
"O=C(CNc1ccc2c(C(F)(F)F)cc(=O)oc2c1)N1CC[C@@H]2[C@H]1C(=O)N2S(=O)(=O)O [5(n), (1S,5R)-2-[N-[2-Oxo-4-(trifluoromethyl)-2H-1-benzopyran-7-yl]glycyl]-7-oxo-2,6-diazabicyclo[3.2.0]heptane-6-sulphonic acid sodium salt]",IC50,β-lactamase; [3],67 nM
"O=C([C@H](O)c1ccccc1)N1CC[C@@H]2[C@H]1C(=O)N2S(=O)(=O)[O-].[Na+] [6(k), (1S,5R)-2-[(R)-α-Hydroxyphenylacetyl]-7-oxo-2,6-diazabicyclo[3.4.0]heptane-6-sulphonic acid sodium salt (1:1)]",MIC,Citrobacter freundii; [1],8 µg/mL
"CCN(CC)CC.O=C([C@@H](O)c1ccccc1)N1CC[C@@H]2[C@H]1C(=O)N2S(=O)(=O)O [6(l), (1S,5R)-2-[(S)-α-Hydroxyphenylacetyl]-7-oxo-2,6-diazabicyclo[3.2.0]heptane-6-sulphonic triethylamine salt (1:1)]",MIC,Citrobacter freundii; [1],8 µg/mL
"O=C(/C=C/c1ccc(O)cc1)N1CC[C@@H]2[C@H]1C(=O)N2S(=O)(=O)O [6(t), (1S,5R)-(E)-2-[3-(4-Hydroxy-phenyl)acryloyl]-7-oxo-2,6-diazabicyclo[3.2.0]heptane-6-sulphonic acid sodium salt]",IC50,β-lactamase; [3],12 nM
"Nc1nnc(SCC(=O)Nc2nnc(SCC(=O)N3CC[C@@H]4[C@H]3C(=O)N4S(=O)(=O)O)s2)s1 [6(w), (1S,5R)-2-[5-(5-Amino-1,3,4-thiadiazol-2-ylsulfanylacetylamino)-1,3,4-thiadiazol-2-ylsulfanylacetyl]-7-oxo-2,6-diazabicyclo[3.2.0]heptane-6-sulfonic acid sodium salt]",IC50,β-lactamase; [3],22 nM
"COC(=O)/C=C1\CN(C(=O)OCc2ccccc2)[C@@H]2C(=O)N(S(=O)(=O)O)[C@H]12 [14(a), (1S,5R)-(E)-4-Methoxycarbonylmethylene-7-oxo-6-sulpho-2,6-diazabicyclo[3.2.0]heptane-2-carboxylic acid benzyl ester sodium salt]",IC50,β-lactamase; [3],32 nM
"NC(=O)/C=C1\CN(C(=O)OCc2ccccc2)[C@@H]2C(=O)N(S(=O)(=O)O)[C@H]12 [14(b), (1S,5R)(E)-2-Benzyloxycarbonyl-4-carbamoylmethylene-7-oxo-2,6-diazabicyclo[3.2.0]heptane-6-sulphonic acid sodium salt]",IC50,β-lactamase; [3],65 nM
"NC(=O)/C=C1/CN(C(=O)OCc2ccccc2)[C@@H]2C(=O)N(S(=O)(=O)O)[C@H]12 [14(c), (1S,5R)(Z)-2-Benzyloxycarbonyl-4-carbamoylmethylene-7-oxo-2,6-diazabicyclo[3.2.0]heptane-6-sulphonic acid sodium salt]",IC50,β-lactamase; [3],826 nM
"O=C(OCc1ccccc1)N1C[C@H](F)[C@@H]2[C@H]1C(=O)N2S(=O)(=O)O [16(a), (1S,4S,5S)-4-Fluoro-7-oxo-6-sulpho-2,6-diazabicyclo[3.2.0]heptane-2-carboxylic acid benzyl ester sodium salt]",IC50,β-lactamase; [3],14 nM
"O=C(OCc1ccccc1)N1C[C@@H](Cl)[C@@H]2[C@H]1C(=O)N2S(=O)(=O)O [16(b), (1S,4R,5S)-2-Benzyloxycarbonyl-4-chloro-7-oxo-2,6-diazabicyclo[3.2.0]heptane-6-sulphonic acid sodium salt]",IC50,β-lactamase; [3],334 nM
"O=C(NC1CCC1)N1CC[C@@H]2[C@H]1C(=O)N2S(=O)(=O)O [17(h), (1S,5R)-2-Cyclobutylcarbamoyl)-7-oxo-2,6-diazabicyclo[3.2.0]heptane-6-sulphonic acid sodium salt]",pIC50,β-lactamase,6.84
"O=C(NC1CC1)N1CC[C@@H]2[C@H]1C(=O)N2S(=O)(=O)O [17(i), (1S,5R)-2-Cyclopropylcarbamoyl)-7-oxo-2,6-diazabicyclo[3.2.0]heptane-6-sulphonic acid sodium salt]",pIC50,β-lactamase,6.61
"O=C(NCc1cccs1)N1CC[C@@H]2[C@H]1C(=O)N2S(=O)(=O)O [17(p), (1S,5R)-2-(2-Thien-2-ylmethylcarbamoyl)-7-oxo-2,6-diazabicyclo[3.2.0]heptane-6-sulphonic acid sodium salt]",pIC50,β-lactamase,6.42
"O=C1[C@H](NC(=O)N2CC[C@@H]3[C@H]2C(=O)N3S(=O)(=O)O)CCN1O [17(r), sodium salt]",IC50,"β-lactamase; read-out: IC 50 nM; isolated β-lactamase of Citrobacter freundii; substrate nitrocefin 0.1 mM; 15 minutes pre-incubation with inhibitor; 37° C., pH 7.0",490 nM
"O=C(Nc1cccc(O)c1)N1CC[C@@H]2[C@H]1C(=O)N2S(=O)(=O)O [17(s), (1S,5R)-2-(3-Hydroxyphenylcarbamoyl)-7-oxo-2,6-diazabicyclo[3.2.0]heptane-6-sulphonic acid sodium salt]",IC50,β-lactamase; [3],38 nM
"O=C1SCC[C@@H]1NC(=O)N1CC[C@@H]2[C@H]1C(=O)N2S(=O)(=O)O [17(t), (1S,5R)-7-Oxo-2-(S)-(2-oxo-3-tetrahydrothienyl-carbamoyl)-2,6-diazabicyclo[3.2.0]heptane-6-sulphonic acid sodium salt]",pIC50,β-lactamase,7.28
"O=C(Nc1ccc(O)cc1)N1CC[C@@H]2[C@H]1C(=O)N2S(=O)(=O)O [17(w), (1S,5R)-2-(4-Hydroxyphenylcarbamoyl)-7-oxo-2,6-diazabicyclo[3.2.0]heptane-6-sulphonic acid sodium salt]",IC50,β-lactamase; [3],109 nM
"CO/N=C(\C(=O)N[C@@H]1C(=O)N2C(C(=O)O)=C(CSc3nc(=O)c(=O)[nH]n3C)CS[C@H]12)c1csc(N)n1 [Ceftriaxone, ceftriaxone, reference compound]",MIC,"Citrobacter freundii; ceftriaxone alone (control), read-out: MIC",128 µg/mL
"O=C(OCc1ccccc1)N1C[C@@H](Cl)[C@@H]2[C@H]1C(=O)N2S(=O)(=O)O [Example 15, (1S,4R,5S)-2-Benzyloxycarbonyl-4-chloro-7-oxo-2,6-diazabicyclo[3.2.0]heptane-6-sulphonic acid sodium salt]",IC50,β-lactamase; [3],630 nM
"COC(=O)NN1CC[C@@H]2[C@H]1C(=O)N2S(=O)(=O)[O-].[Na+] [Example 18, Methyl (1S,5R)-7-oxo-6-sulpho-2,6-diazabicyclo[3.2.0]heptane-2-carbamate sodium salt]",MIC,Citrobacter freundii; [1],1 µg/mL
"Cn1nnnc1S[C@@H]1CN(C(=O)OCc2ccccc2)[C@@H]2C(=O)N(S(=O)(=O)O)[C@@H]21 [Example 22, (1S,4R,5S)-2-Benzyloxycarbonyl-4-(1-methyl-1H-tetrazol-5-yl-thio)-7-oxo-2,6-diazabicyclo[3.2.0]heptane-6-sulphonic acid sodium salt]",IC50,β-lactamase; [3],220 nM
"(1S,5R)-(E)-3-Phenyl-acryloyl-2,6-diazabicyclo[3.2.0]heptane-6-sulphonic acid sodium salt [11(a)]",MIC,Citrobacter freundii; [1],8 µg/mL
